Where only a bound is given, the exact number is not on record here.

As for `COc1ccc(CC2(C)CN(C(c3ccccc3)c3ccccc3)CCN2C(C)=O)cc1OC` (stereo not drawn), the melting point was 116 °C. For `O=C(O)C1=CCCCC1C(=O)O` (stereo not drawn), the melting point lay within 201 to 203 °C. Compound `Cc1cc(N)cc(C)c1Oc1ccc(O)c(C(C)C)c1` showed a melting point of 180 to 181 °C. For `CCc1ccnc(C(=O)c2[nH]c3ccc(Cl)cc3c2CC(=O)O)c1F`, the melting point was found to be 208 °C.

Take `O=c1c(-c2cccs2)nc2ccccc2n1CC1CCCO1` (stereo not drawn): the melting point worked out at 123 °C.

In turn, `Cc1nc2c(O[C@@H]3c4ccccc4CC[C@H]3O)cccn2c1CC#N` (relative stereo) returned a melting point of 154 to 155 °C.

Compound `CC(=O)NCCCCOC1c2ccccc2C(=O)N1c1ccc2ccc(Cl)nc2n1` (stereo not drawn) returned a melting point of 120 °C. Take `CSc1cc2c(cc1C(F)(F)F)N(C(=O)Nc1ccc(C(=O)NCCN(C)C)cc1)CC2`: the melting point lay within 154 to 155 °C. For `CC(C)(C)OC(=O)Cn1c2ccccc2c2c(N3CCCC3)nc(N3CCCC3)nc21`, the melting point was 131 to 133 °C. For `CN1C(=O)C(Cc2ccncc2)(Cc2ccncc2)NC1=S` the value was 225 to 227 °C; for `COc1cc(OC)cc(N2CCN(CCC3CN(C)C(=O)O3)CC2)c1` (stereo not drawn), 85 to 87 °C. Regarding `Cn1cc(-c2nnn[nH]2)c(=O)c2ccc(F)cc21`, the melting point lay in the range of 290 to 292 °C. For `CC(C)(C)C(=O)C(Br)Cc1cccnc1` (stereo not drawn) the value was 163 to 164 °C; for `Cc1cc(OCC(O)CNC(C)(C)C)c2cc(C(N)=O)[nH]c2c1` (stereo not drawn), 213 to 214 °C; for `CC(=O)NC1CCC(=O)c2sccc21` (stereo not drawn), 160 to 164 °C. For the compound `CC(=O)Nc1c(C(=O)c2ccccc2)[nH]c2cc(F)ccc12`, the melting point lay within 144 to 145 °C. For the compound `Nc1cccc(CN2CCN(C(c3ccccc3)c3ccccc3)CC2)c1`, the melting point was 104 to 106 °C. Turning to `CC(=O)OCC1OC(n2ccnc2[N+](=O)[O-])CC1OC(C)=O` (stereo not drawn), the melting point amounted to 155 °C.

In turn, `COc1ccc(-c2cc(=O)cc(N3CCOCC3)s2)cc1` registered a melting point of 199 to 200 °C. With `C#CCn1c(C(F)(F)F)c(C(=O)OCC)oc1=O`, the melting point was 72 °C. With `CC1(C)CCC(C)(C)c2cc(CC#Cc3ccc(C(=O)O)cc3)ccc21` the figure was 167 to 168 °C; with `COCOC1CCN(c2ccc(NC(=O)c3cnn(-c4ccc(Cl)cc4)c3C)cc2C#N)CC1`, 186 to 188 °C. Consider `CC(=O)SCCC(=O)NC1(C(=O)O)CCCC1`, for which the melting point lay in the range of 127 to 128 °C.

In turn, `COc1cc(OC)c2c(c1)S(=O)(=O)N(COC(=O)c1c(Cl)cccc1Cl)C2=O` displayed a melting point of 200 to 201 °C. As for `O=C1c2c(Sc3ccccc3)ccc(Sc3ccc(O)cc3)c2C(=O)c2c(Sc3ccccc3)ccc(Sc3ccc(O)cc3)c21`, the melting point is > 340 °C. For the compound `Nc1nc(-c2ccnc(-c3ccc(N4CCOCC4)cc3)c2)c(-c2ccccn2)s1`, the melting point amounted to 276 °C. As for `COc1cc2c3c(c1)c(=O)c(C(=O)O)cn3CCC2`, the melting point was in the range of 253 to 257 °C. With `O=C(O)/C=C/c1ccnc(-c2nc(=O)c3ccccc3s2)c1` the figure was 284 to 285 °C. In the case of `O=c1c2c(Cc3ccccc3C(F)(F)F)n[nH]c2c2cccnc2n1-c1ccccc1`, the melting point was 292 to 294 °C.

As for `CCOC(=O)C1(S(=O)(=O)c2ccc(OC)cc2)CCN(Cc2ccc(-c3ccccc3)cc2)CC1`, the melting point lay in the range of 176 to 178 °C. Take `COc1cc2cc(COC(C)=O)c(COC(C)=O)c(C=O)c2cc1OC`: the melting point lay in the range of 154 to 155 °C. The compound `CCOc1ncc(SC)cc1C(=O)O` returned a melting point of 78 to 92 °C. As for `Cc1ccc([N+](=O)[O-])cc1C(=O)N(C)C`, the melting point fell in the range of 98 to 99 °C. For `CCC(NC(=NC#N)Nc1ccc(N)nc1)c1ccccc1` (stereo not drawn) the value was 178 °C; for `CNC(=S)N(C)c1ccc(OC)nc1`, 116 °C; for `CC(C)(C)c1ccc(C(=O)O)c(C(=O)O)c1`, 148 to 150 °C.

As to `O=C(O)c1cn(C2CC2)c2c(F)c(N3CCN(O)CC3)c(F)cc2c1=O`, the melting point is 223 to 227 °C. `CC1(C)Oc2ccc(C#N)cc2[C@@H](NC(=O)Nc2ccccc2)[C@@H]1O` (relative stereo) had a melting point of 226 to 227 °C. For `Cc1c(C)c2c(c(C)c1NS(C)(=O)=O)C(c1ccc(C(C)C)cc1)CO2` (stereo not drawn) the value was 132 to 133 °C; for `N#Cc1cc[nH]c1-c1cc2ccccc2o1`, 157 to 160 °C; for `CC(C)(C)[Si](C)(C)OCc1ccc(C(=NO)C(F)(F)F)cc1`, 63 to 65 °C. The compound `Cn1c([N+](=O)[O-])cnc1C1=NO[C@@H]2CCCCCCCCCC[C@@H]12` (relative stereo) gave a melting point of 121 to 122 °C.

Take `COc1cc(OCc2oc(=O)oc2C)c(C(=O)CCc2ccc3occc3c2)cc1C1OC(CO)C(O)C(O)C1O` (stereo not drawn): the melting point came to 128 °C. Compound `N#Cc1c(Nc2cccnc2)nn(Cc2ccccc2)c1N` came in with a melting point of 191 to 192 °C. With `OC(CCl)(Cc1ccc(Cl)cc1)c1ccc2c(c1)Cc1cc(Cl)ccc1-2` (stereo not drawn) the figure was 108 °C; with `Cc1nc(C)c(Cl)c(NCc2nccc(SCCCCN3CCNCC3)c2C)n1`, 143 to 145 °C; with `COc1cccc(CN2C(=O)C3CCCC3N(C(=O)CN3C(=O)c4ccccc4C3=O)c3ccccc32)c1` (stereo not drawn), 193 to 194 °C. On to `Cc1cc(CCCOc2c(C)cc(-c3noc(C(F)(F)F)n3)cc2C)on1`, for which the melting point fell in the range of 61 to 62 °C. `O=C(O)c1ccc2nc(-c3ccc(C(=O)NC4CCCCC4)cc3)[nH]c2c1` showed a melting point of 334 to 337 °C. For `CCOC(=O)C(S)(C#N)C1=NC(C)Cc2cc(OC)c(OC)cc21` (stereo not drawn) the value was 128 to 130 °C; for `Cc1cc(OCC2CO2)c2c3c(c(=O)oc2c1)CCCC3` (stereo not drawn), 164 to 165 °C. As for `COc1ccc2c(Nc3ccc4[nH]ccc4c3)c(C#N)cnc2c1`, the melting point was > 250 °C. For the compound `COc1cc2c(cc1OS(N)(=O)=O)CC(C)(C)N(C(=O)c1cc(OC)c(OC)c(OC)c1)C2C` (stereo not drawn), the melting point was 170 to 173 °C. As for `Cc1cn2ccc(N)c(I)c2n1`, the melting point came to 185 °C. The compound `COc1ccc(CCCCc2ccc(OC)c(OC)c2OC)cc1OC` had a melting point of 165 to 167 °C.

For the compound `C=C(C)C(=O)OCCCCCCN(C)c1ccc(C=Cc2ccc([N+](=O)[O-])cc2)cc1`, the melting point was in the range of 109 to 111 °C. For `Cn1nc2c(N)nc3ncccc3c2c1CC(C)(C)C` the value was 323 to 326 °C; for `O=C1c2ccccc2C(=O)N1CCCCCCc1cncnc1`, 124 to 126 °C. Compound `O=C(O)c1cn([C@@H]2C[C@@H]2F)c2c(Cl)c(N3CC4=C(CNC4)C3)c(F)cc2c1=O` came in with a melting point of 221 to 223 °C. Compound `CC(C)c1nc2cc(COc3ccc(C=C4SC(=O)NC4=O)cc3)ccc2o1` yielded a melting point of 219 to 221 °C. With `O=C(O)c1cc(C(=O)O)c2c(c1)C(C(=O)O)CCN2` (stereo not drawn) the figure was 240 to 241 °C; with `Cc1cccc2c1N(CC(=O)N1CC3CCC(CC3)C1)C(=O)C(NC(=O)Nc1cccc(Cl)c1)N=C2c1ccccc1F` (stereo not drawn), > 250 °C; with `COc1ccc2c(c1)C(=O)N(c1ccc3c(c1)N(C)CCN3C)C2`, 137 to 142 °C.

The compound `COc1ccc(CC(=O)c2cccs2)cc1` yielded a melting point of 77 to 78.4 °C. With `COc1cc(C(C)C)ccc1C1(O)C(=O)c2ccc(N)c(NC(C)=O)c2C1=O` (stereo not drawn), the melting point lay in the range of 124 to 131 °C. For `CCOC(=O)c1c(C)nn(-c2ccc(Br)cc2)c1C`, the melting point lay in the range of 71 to 73 °C. The compound `CCCCCCCCCCCc1cc2ccc(C(=O)O)cc2n1C` yielded a melting point of 165 to 168 °C. `CCCc1nc(C(C)O)c(C(=O)OCC)[nH]1` (stereo not drawn) returned a melting point of 151 to 153 °C. On to `O=C1CCCCCC1n1nc(-c2c(-c3ccccc3)nn3ccccc23)ccc1=O` (stereo not drawn), for which the melting point lay within 112 to 114 °C. Regarding `COC(=O)[C@H]1Cc2c([nH]c3ccccc23)[C@@H](c2ccc3c(c2)OCO3)N1`, the melting point lay in the range of 154 to 155 °C.

Take `CN(C)C(=O)C=Cc1ccc(C=CC(=O)N(C)C)cc1`: the melting point came to 247 °C. For `C=CCOC(=O)/C=C/c1c[nH]c2ccc(OCc3ccccc3)cc12` the value was 73 to 77 °C; for `CCn1c(=O)[nH]c(=O)c2nc(-c3ccc(/C=C/C(=O)O)cc3)[nH]c21`, > 300 °C; for `CC(C(=O)OC(C)(C)C)c1ccc(N2Cc3ccc(Cl)cc3C2=O)cc1` (stereo not drawn), 169 to 171 °C.

On to `Cc1cc(-c2cc(C(F)(F)F)n3ncc(-c4ccncc4)c3n2)ccc1C(F)(F)F`, for which the melting point was 227 °C. `CC(=NOCc1ccccc1-n1c(Cl)nn(C)c1=O)c1cccc(C(F)(F)F)c1` showed a melting point of 95 to 97 °C. In turn, `CCOC(=O)c1ccc(/C=C/C(=O)O)cn1` returned a melting point of 201 to 202 °C. The compound `NC(=O)c1ccc(Cn2ccc(OCc3ccc(F)cc3F)c(Br)c2=O)cc1` had a melting point of 235 to 238 °C. As to `COC(=O)N(C)CCc1ccc(N)c(CS(=O)(=O)c2ccccc2)c1`, the melting point fell in the range of 95 to 96 °C.

Regarding `COCc1cc(-c2ccccc2)c(=O)n2c1-c1sccc1CC2`, the melting point worked out at 120 °C. In turn, `COc1ccc(-c2cc(F)c(F)cc2-c2ccc(S(C)(=O)=O)cc2)cc1F` gave a melting point of 159 to 160 °C. With `CC1OC(Oc2ccc(C(=O)c3ccc(C#N)cc3)cc2)C(O)C(O)C1O` (stereo not drawn) the figure was 96 °C; with `CCOC(=O)c1ccc(-c2nc3cc4c(cc3[nH]2)NC(=O)C4(C)C)c(OC)c1`, 235 to 240 °C; with `CC(c1ccc(-c2ccccc2)c(F)c1)c1cc(N(C)C(=S)NC(=O)c2ccccc2)on1` (stereo not drawn), 115 to 116 °C. `CCn1nc(C)c2c1C(=O)NCC(c1ccc(NS(=O)(=O)c3ccccc3S(=O)(=O)c3ccccc3)cc1)=N2`: the melting point was > 230 °C. `CC1(C)OC(=O)C(OC2CCCCC2)=C1c1ccc(S(C)(=O)=O)cc1`: the melting point was in the range of 143 to 144 °C.

On to `COC(=O)C1=Cc2cc(Br)cnc2N2CCCC2CC1` (stereo not drawn), for which the melting point lay in the range of 98 to 99 °C.

In turn, `COC(=O)c1cc(-c2nc(COc3ccc(C=O)cc3OC)c(C)o2)ccc1C` registered a melting point of 136 to 137 °C.

The values above are taken from a melting point compilation (Tetko et al.; mined from patent text by program, amines drawn as free bases though some values may be those of a salt).
